From US10723711B2, “1,1,1-trifluoro-3-hydroxypropan-2-yl carbamate derivatives and 1,1,1-trifluoro-4-hydroxybutan-2-yl carbamate derivatives as MAGL inhibitors” (PFIZER INC., priority 2015, dated 2020) come the findings set out here.

What all share (type): biochemical
For assay [1], the target named is T1, human recombinant Monoacylglycerol Lipase (Homo sapiens, UniProt Q99685).
T1 sequence (Q99685 1-303): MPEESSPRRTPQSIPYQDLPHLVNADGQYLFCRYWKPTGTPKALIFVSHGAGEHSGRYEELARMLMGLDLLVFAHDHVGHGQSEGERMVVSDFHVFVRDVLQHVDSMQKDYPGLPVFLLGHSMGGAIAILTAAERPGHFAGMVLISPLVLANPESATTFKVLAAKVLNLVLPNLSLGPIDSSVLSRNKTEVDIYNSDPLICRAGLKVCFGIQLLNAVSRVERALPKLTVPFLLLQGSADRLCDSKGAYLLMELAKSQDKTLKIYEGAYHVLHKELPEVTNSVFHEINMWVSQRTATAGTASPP
As to the kind of experiment: MAGL inhibition enzymatic assay, fluorogenic substrate 7-HCA, IC50 at T=0 min or after 30 minute incubation (T=30 min). The note with it: geometric mean of 2-4 determinations unless otherwise indicated. Here is the method:
An equal volume of 7-HCA in assay buffer with 10% DMSO was added either immediately (T=0 min) or after a 30 minute incubation (T=30 min) to initiate the reaction. […] After these dilutions, the final concentration of the test compound ranged from 3 μM to 0.03 nM. […] IC50 values were generated based on a four parameter fit model using ABASE software from IDBS.

For assay [2], the target named is T2, human recombinant FAAH (Homo sapiens, UniProt O00519).
T2 construct: purchased Cayman 10010183
T2 sequence (O00519 1-579): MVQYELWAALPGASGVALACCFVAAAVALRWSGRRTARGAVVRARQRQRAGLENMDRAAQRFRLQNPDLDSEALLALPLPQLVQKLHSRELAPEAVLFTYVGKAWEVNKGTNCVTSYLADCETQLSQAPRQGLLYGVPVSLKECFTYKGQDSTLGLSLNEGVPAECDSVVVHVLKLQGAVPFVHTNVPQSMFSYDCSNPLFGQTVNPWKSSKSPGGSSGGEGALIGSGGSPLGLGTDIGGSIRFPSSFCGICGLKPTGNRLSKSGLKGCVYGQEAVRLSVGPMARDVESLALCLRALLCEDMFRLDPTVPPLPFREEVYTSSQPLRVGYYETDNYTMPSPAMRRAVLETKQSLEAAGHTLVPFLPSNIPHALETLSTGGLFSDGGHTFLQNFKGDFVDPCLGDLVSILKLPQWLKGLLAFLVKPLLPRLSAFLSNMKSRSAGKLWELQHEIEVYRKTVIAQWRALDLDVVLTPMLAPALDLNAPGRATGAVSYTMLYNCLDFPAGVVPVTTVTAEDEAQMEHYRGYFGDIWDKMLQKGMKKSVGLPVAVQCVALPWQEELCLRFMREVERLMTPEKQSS
As to the kind of experiment: FAAH inhibition enzymatic assay, fluorescent substrate Arachidonoyl-AMC, 30 minute incubation. The note with it: T = 30 min (30 minute incubation); geometric mean of 2-4 determinations unless otherwise indicated. The method, then:
Assessment of FAAH inhibition utilizes human recombinant FAAH and the fluorescent substrate, Arachidonoyl-AMC. 400 nL of a test compound at decreasing concentrations was spotted into a 384-well back plate (PerkinElmer, 6007279) using a Labcyte Echo, followed by addition of 10 μl of FAAH enzyme (Cayman 10010183) in assay buffer (50 mM Tris, pH 9.0, 1 mM EDTA). After a 30 minute incubation at room temperature, 10 μL of Arachidonyl-AMCA was added in assay buffer with 16% DMSO. Final concentration of FAAH enzyme was 0.0125 Units and AAMCA substrate was used at the Km of 5 μM. […] The reaction was allowed to progress for 60 minutes, after which the plate was read on a Molecular Devices FlexStation reader at an Ex/Em of 355/460. Percent inhibitions were calculated based on controls wells containing either no compound (0% inhibition) or a control compound (e.g., an FAAH inhibitor whose activity is known or was previously reported in the literature, such as one with about 100% inhibition). IC50 values were generated based on a four parameter fit model using ABASE software from IDBS.

Assay [3] deals with T1, human recombinant Monoacylglycerol Lipase. As to the kind of experiment: MAGL inactivation, enzyme progress curves, kinact/KI. The note with it: from enzyme progress curves, T = 0 min protocol; geometric mean of 2-4 determinations unless otherwise indicated. The method, then:
Assessment of MAGL inhibition utilizes human recombinant Monoacylglycerol Lipase and the fluorogenic substrate 7-hydroxycoumarinyl arachidonate (7-HCA, Biomol ST-502). 400 nL of a test compound at decreasing concentration (ranging from 150 μM down to 1.5 nM) was spotted into a 384-well back plate (PerkinElmer, 6007279) using a Labcyte Echo, followed by addition of 10 μL of MAGL enzyme in assay buffer (50 mM HEPES, pH 7.4, 100 mM NaCl, 5 mM MgCl2, 0.1% Triton X-100 and 25% glycerin). An equal volume of 7-HCA in assay buffer with 10% DMSO was added either immediately (T=0 min) or after a 30 minute incubation (T=30 min) to initiate the reaction. The final concentration of MAGL enzyme was […] and 7-HCA substrate was 5 μM. After these dilutions, the final concentration of the test compound ranged from 3 μM to 0.03 nM. The reaction was allowed to progress for 60 minutes, after which the plate was read at an Ex/Em of 340/465. Percent inhibitions were calculated based on control wells containing no compound (0% inhibition) and a control compound (e.g., a MAGL inhibitor whose activity is known or was previously reported in the literature, such as one with about 100% inhibition). IC50 values were generated based on a four parameter fit model using ABASE software from IDBS. See e.g., Wang, Y. et al., “A Fluorescence-Based Assay for Monoacylglycerol Lipase Compatible with Inhibitor Screening,” Assay and Drug Development Technologies, 2008, Vol. 6 (3) pp 387-393 (reporting an assay for measuring MAGL activity).
To measure MAGL inactivation, the same protocol for the (T=0 min) MAGL inhibition IC50 assay was performed with data collected every minute to acquire enzyme progress curves at decreasing concentrations of compound.

Setting [4] is: T = 0 min (substrate added immediately), read-out: MAGL (T = 0 min) IC50.
The mark [5] stands for this setting: T = 30 min (30 minute incubation), read-out: MAGL (T = 30 min) IC50.

Like-named read-outs stand apart in the source and are kept apart here.

As a reminder, the IC50 is the concentration that inhibits the measured activity by half. In the case of `O=C(OC(C(F)(F)F)C(F)(F)CO)N1C[C@@H]2[C@H](C1)[C@H]2c1ccn(-c2ccc(F)cc2)n1` (stereo partly drawn) [Example 39], the results for the IC50 in assay [1] (setting [4]), in assay [1] (setting [5]) and in assay [2] were 0.034 µM, 0.002 µM and 6.01 µM, respectively. In addition, the “MAGL kinact/KI” value in assay [3] is given as 9893 1/s per M.

With `COc1ccc(C2COC3(CCN(C(=O)O[C@H](CO)C(F)(F)F)CC3)C2)nc1` (mixture of isomers) [Example 121], the figures for the IC50 in assay [1] (setting [4]), in assay [1] (setting [5]) and in assay [2] were 0.149 µM, 0.02 µM and 14.7 µM, respectively. The “MAGL kinact/KI” value in assay [3] is listed as 1207 1/s per M.

As for `CN(C1COC2(CCN(C(=O)O[C@H](CO)C(F)(F)F)CC2)C1)S(=O)(=O)c1cccnc1` (mixture of isomers) [Example 114], the IC50 in assay [1] (setting [4]) was 0.163 µM; in assay [1] (setting [5]), 0.015 µM; in assay [2], > 30 µM. Besides, the “MAGL kinact/KI” value in assay [3] is 6263 1/s per M.

Consider `CN(C(=O)CC1CC1)[C@H]1COC2(CCN(C(=O)O[C@H](CO)C(F)(F)F)CC2)C1` [Example 145], for which the IC50 is 0.198 µM in assay [1] (setting [4]), 0.019 µM in assay [1] (setting [5]) and > 30 µM in assay [2]. The “MAGL kinact/KI” value in assay [3] is 1476 1/s per M.

Turning to `O=C(O[C@H](CO)C(F)(F)F)N1CCC2(CC1)CC(c1ccccc1)CO2` (single isomer, unassigned) [Example 96], the IC50 in assay [1] (setting [4]) came to 0.062 µM; in assay [1] (setting [5]), 0.005 µM; in assay [2], 9.52 µM. Moreover, the “MAGL kinact/KI” value in assay [3] is 18560 1/s per M.

As to `C#Cc1ccc(-n2ccc(C3CCN(C(=O)O[C@H](CO)C(F)(F)F)CC3)n2)cc1` [Example 80], the IC50 in assay [1] (setting [4]) turned out to be 0.007 µM; in assay [1] (setting [5]), 0.001 µM; in assay [2], 7.92 µM. Further, the “MAGL kinact/KI” value in assay [3] is given as 126124 1/s per M.

On to `CN([C@H]1COC2(CCN(C(=O)O[C@H](CO)C(F)(F)F)CC2)C1)S(=O)(=O)CC1CCC1` [Example 140], for which the IC50 in assay [1] (setting [4]) was 0.094 µM; in assay [1] (setting [5]), 0.009 µM; in assay [2] it was > 30 µM. Moreover, the “MAGL kinact/KI” value in assay [3] is 4595 1/s per M.

In the case of `CC(c1ccc(F)cc1)N1CCOC2(CCN(C(=O)O[C@H](CO)C(F)(F)F)CC2)C1` (single isomer, unassigned) [Example 44], the IC50 is 0.179 µM in assay [1] (setting [4]), 0.017 µM in assay [1] (setting [5]) and > 30 µM in assay [2]. In addition, the “MAGL kinact/KI” value in assay [3] is 3701 1/s per M.

Regarding `CC(C)c1cccc(S(=O)(=O)N2CCOC3(CCN(C(=O)O[C@H](CO)C(F)(F)F)CC3)C2)c1` [Example 66], the IC50 in assay [1] (setting [4]) was found to be 0.003 µM; in assay [1] (setting [5]), 0.0002 µM; in assay [2] it was 7.87 µM. For the same compound, in assay [3], the “MAGL kinact/KI” value is recorded as 430364 1/s per M.

On to `C#Cc1cccc(S(=O)(=O)N2CCOC3(CCN(C(=O)O[C@H](CO)C(F)(F)F)CC3)C2)c1` [Example 79], for which the IC50 in assay [1] (setting [4]) was determined as 0.007 µM; in assay [1] (setting [5]), 0.001 µM; in assay [2], 10 µM. In addition, the “MAGL kinact/KI” value in assay [3] is listed as 26513 1/s per M.

As to `O=C(O[C@H](CO)C(F)(F)F)N1CCC(Oc2ccc(C(F)(F)F)cn2)CC1` [Example 53], the IC50 was 0.053 µM in assay [1] (setting [4]), 0.006 µM in assay [1] (setting [5]) and > 30 µM in assay [2]. Besides, the “MAGL kinact/KI” value in assay [3] is recorded as 6900 1/s per M.

As to `O=C(O[C@H](CO)C(F)(F)F)N1CCC2(CC1)CC(c1cccc(Cl)c1)CO2` (mixture of isomers) [Example 119], the IC50 is 0.032 µM in assay [1] (setting [4]), 0.003 µM in assay [1] (setting [5]) and 3.57 µM in assay [2]. Moreover, the “MAGL kinact/KI” value in assay [3] is listed as 23176 1/s per M.

Consider `O=C(O[C@H](CO)C(F)(F)F)N1CCC2(CC1)CCN(S(=O)(=O)c1ccccc1)C2` [Example 105, (2R)-1,1,1-Trifluoro-3-hydroxypropan-2-yl 2-(phenylsulfonyl)-2,8-diazaspiro[4.5]decane-8-carboxylate], for which the IC50 came to 0.022 µM in assay [1] (setting [4]), 0.002 µM in assay [1] (setting [5]) and 9.76 µM in assay [2]. Also, the “MAGL kinact/KI” value in assay [3] is recorded as 59993 1/s per M.

Take `O=C(OC(C(F)(F)F)C(F)(F)CO)N1CCC2(CC1)CN(S(=O)(=O)c1ccc(F)cc1)CCO2` (single isomer, unassigned; ent-1) [Example 20, 1,1,1,3,3-Pentafluoro-4-hydroxybutan-2-yl 4-[(4-fluorophenyl)sulfonyl]-1-oxa-4,9-diazaspiro[5.5]undecane-9-carboxylate, ENT-1]: the IC50 in assay [1] (setting [4]) was 0.061 µM; in assay [1] (setting [5]) it was 0.006 µM; in assay [2], > 30 µM. Also, in assay [3], the “MAGL kinact/KI” value is given as 4611 1/s per M.

As for `O=C(O[C@H](CO)C(F)(F)F)N1CCC(CNS(=O)(=O)c2ccc(F)cc2)CC1` [Example 47], the IC50 in assay [1] (setting [4]) is 0.174 µM; in assay [1] (setting [5]), 0.017 µM; in assay [2], > 30 µM. In assay [3], the “MAGL kinact/KI” value is on record as 5046 1/s per M.

Regarding `O=C(O[C@H](CO)C(F)(F)F)N1CCC2(CC1)CN(S(=O)(=O)c1ccccc1F)CCO2` [Example 84], the IC50 is 0.026 µM in assay [1] (setting [4]), 0.002 µM in assay [1] (setting [5]) and 19.2 µM in assay [2]. In addition, the “MAGL kinact/KI” value in assay [3] was 49166 1/s per M.

Turning to `O=C(O[C@H](CO)C(F)(F)F)N1CCC2(CC1)CCN(C(=O)c1nccs1)C2` [Example 125], the IC50 in assay [1] (setting [4]) was 0.065 µM; in assay [1] (setting [5]), 0.007 µM; in assay [2], > 30 µM. In assay [3], the “MAGL kinact/KI” value is recorded as 5464 1/s per M.

On to `O=C(O[C@H](CO)C(F)(F)F)N1CCC2(CC1)CC(Oc1ccccn1)CO2` (single isomer, unassigned) [Example 130], for which the IC50 in assay [1] (setting [4]) is 0.076 µM; in assay [1] (setting [5]) it was 0.006 µM; in assay [2], 25.7 µM. Moreover, the “MAGL kinact/KI” value in assay [3] is 12483 1/s per M.

Regarding `O=C(O[C@H](CO)C(F)(F)F)N1CCC2(CC1)CC(n1cccn1)CO2` (single isomer, unassigned) [Example 103], the IC50 is 0.334 µM in assay [1] (setting [4]), 0.03 µM in assay [1] (setting [5]) and > 30 µM in assay [2].

For `Cc1ccc(C2COC3(CCN(C(=O)O[C@H](CO)C(F)(F)F)CC3)C2)cn1` (mixture of isomers) [Example 123], the concentration for half-maximal inhibition (IC50) in assay [1] (setting [4]) stood at 0.349 µM; in assay [1] (setting [5]), 0.03 µM; in assay [2] it was 24.6 µM.
